Assay results published in patent US10011842B2, “Escherichia coli cell line with thyA knockout, folA knockout, and one or both of folP knockout, and folK knockout” (priority 2013, dated 2018).

Assays:
[1] = tested on: Plasmodium falciparum parasites; test: standard hypoxanthine incorporation method in Plasmodium falciparum parasites; assay type: cell-based; settings: read-out: IC50 (50% inhibitory concentration)
[2] = tested on: PEcΔTFP transformed with plasmids containing Pfdhfr-ts (WT) and Pfhppk-dhps (WT); test: growth inhibition of PEcΔTFP surrogate host (antifolate drug screening); assay type: cell-based, Escherichia coli BL21(DE3); settings: PEcΔTFP with wild type Pfdhfr-ts and Pfhppk-dhps, minimal media with L-arabinose, 37 degrees Celsius, 16 hours
Experimental: (§1) Pyrimethamine and sulfathiazole were chosen for this experiment. The 50% inhibitory concentrations (IC50) of each drug were calculated from dose-response growth curves for PEcΔTFP and PEcΔTFPK surrogates transformed with plasmids containing wild type Pfdhfr-ts and Pfhppk-dhps. Cells were incubated in various concentrations of drug in minimal media supplemented with L-arabinose as an inducer and antibiotics for selection of complementing plasmids in 96-well plates at 37 degrees Celsius for 16 hours.

[3] = tested on: PEcΔTFPK transformed with plasmids containing Pfdhfr-ts (WT) and Pfhppk-dhps (WT); test: growth inhibition of PEcΔTFPK surrogate host (antifolate drug screening); assay type: cell-based, Escherichia coli BL21(DE3); settings: PEcΔTFPK with wild type Pfdhfr-ts and Pfhppk-dhps, minimal media with L-arabinose, 37 degrees Celsius, 16 hours
Experimental: as §1

Compound | IC50 [1] [µM] | IC50 from dose-response growth curves compared with the standard method [2] | IC50 from dose-response growth curves compared with the standard method [3]
CCc1nc(N)nc(N)c1-c1ccc(Cl)cc1 [pyrimethamine] | 0.041 ± 0.006 |  | 
Nc1ccc(S(=O)(=O)Nc2nccs2)cc1 [sulfathiazole] | 135.4 ± 0.49 | very similar to values from the standard hypoxanthine incorporation method | very similar to values from the standard hypoxanthine incorporation method
